Values joined by “and” are separate entries in the source; they are usually repeats but may differ in a detail not shown here. Equal entries are not always repeated. Where two headings read alike, the source gives them in different places.
Assays:
Human fibroblasts = assay: UVA cytophotoprotection, anti-oxidative effect (MDA released, cell proteins, GSH) on UVA-irradiated human fibroblasts; type: cell-based; settings: UVA 20 J/cm2; for Cell GSH/protein ratio: irradiated control = 78, not irradiated = 100; for MDA released: irradiated control = 100, not irradiated = 0; for Cell proteins: irradiated control = 107, not irradiated = 100
Procedure: The cytoprotection against UVA irradiation has been evaluated by a test on human fibroblasts because UVA radiation penetrates through the epidermis until the dermis where it induces oxidative stress, mainly by activation of photosensitising biological components, which catalyse the formation of ROS like anion superoxide, hydrogen peroxide and singlet oxygen, and lipoperoxydation of the cell membrane. These oxidative stress effects are evaluated in vitro due to measuring of the level of released MDA (malondialdehyde) and of intracellular GSH (reduced glutathion) (Morliere P., Moisan A., Santus R., Huppe G., Mazière J. C., Dubertret L.: UV-A induced lipid peroxydation in cultured human fibroblasts Biochim. Biophys. Acta (1991) 1084, 3:261-269).
The lipoperoxides formed after UVA irradiation undergo a decay into malondialdehyde which can form cross-links between many biological molecules like proteins with inhibition of enzymes and nucleic bases with risk of mutagenesis. Glutathione (GSH) is a peptide produced by the cells to protect them from oxidative stress or certain pollutants like mercury or lead. An increase in the GSH level enhances the activity of glutathion-S-transferase, a detoxification enzyme. GSH is evaluated according to the method of Hissin (Hissin P. J., Hilf R. A fluorometric method for determination of oxydised and reduced Glutathione in tissues. Analytical Biochemistry (1977) vol 74, pp 214-226).
Human fibroblasts were inoculated with growth medium (DMEM+FCS) and incubated 3 days at 37° C., with 5% CO2. The growth medium was then exchanged with medium containing an ingredient to be tested and incubated 2 days at 37° C. with CO2=5%. After an exchange of medium with balanced salt solution, the cell culture was irradiated by UVA 20 J/cm^2. Cell proteins and GSH were measured, and MDA released in the supernatant was determined spectrophotometrically.

Human keratinocytes = assay: UVB cytophotoprotection and anti-inflammatory effect (DNA, LDH and PGE2 released) on UVB-irradiated human keratinocytes; type: cell-based; settings: UVB 50 mJ/cm2; for Keratinocytes DNA: irradiated control = 23, not irradiated = 100; for LDH released / PGE2 released: irradiated control = 100, not irradiated = 0
Source text: The arachidonic cascade is an important mechanism of cutaneous inflammation. This cascade may be induced by several factors, particularly by UVB irradiation. UVB induces the inflammatory response by activation of phospholipase A2 (PLA2), which results in a release of arachidonic acid from cell membranes. Then other specific enzymes (so called cyclo-oxygenases) transform arachidonic acid in active components called prostaglandin (PG) which are secreted from the cells. The fixation of certain prostaglandins (PGE2) on specific skin receptors is followed by redness and swelling on human skin. On cultured human cells, these UVB effects on cell's membrane are associated with a release of a cytoplasmic enzyme into the supernatant medium: Lactate Dehydrogenase or LDH.
Human keratinocytes were inoculated with growth medium (DMEM+FCS) and incubated 3 days at 37° C. and 5% CO2. The growth medium was then exchanged with balanced salt solution containing the ingredient to be tested, the cell culture was irradiated by UVB 50 mJ/cm^2 (DUKE GL40E lamp). After 1 day of incubation at 37° C. with 5% CO2, LDH and PGE2 released in the medium were determined, and cellular DNA was measured using a fluorescent probe to determine the cell viability.

Lipoxygenase = assay: Anti-free radical activity: superoxide anions released by lipoxygenase, Luminol probe; type: biochemical; settings: mean of 2 assays; lipoxygenase with unsaturated fatty acid substrate
Procedure: The anti-free radical (anti-FR) activity has been evaluated by biochemical tests to address the potential for scavenging superoxide anion (O2°).
Lipoxygenase was incubated with a specific substrate (unsaturated fatty acid) and the flavonoid esters. Then the rate of released superoxide anions was determined using Luminol luminescent probe to calculate the IC50 (mean of 2 assays).

[1] = Solubility in hydrophilic and lipophilic solvent by HPLC; type: physicochemical; settings: stirring 1 hour at room temperature; for solubility at 1 h: thermodynamic from solid
Procedure: The solubility was determined by HPLC measurement after stirring during 1 hour at room temperature.

| IC50 (w/v), released superoxide anions (Lipoxygenase) [w/v] | Solubility in butylene glycol [1] | Solubility in octyl-dodecanol [1] | Compound | Cell GSH/protein ratio (Human fibroblasts; dose 0.001 % w/v) [% against control] | MDA released (Human fibroblasts; dose 0.001 % w/v) [% against control] | Cell proteins (Human fibroblasts; dose 0.001 % w/v) [% against control] | Cell GSH/protein ratio (Human fibroblasts; dose 0.003 % w/v) [% against control] | MDA released (Human fibroblasts; dose 0.003 % w/v) [% against control] | Cell proteins (Human fibroblasts; dose 0.003 % w/v) [% against control] | Keratinocytes DNA (Human keratinocytes; dose 0.001 % w/v) [% against control] | LDH released (Human keratinocytes; dose 0.001 % w/v) [% against control] | PGE2 released (Human keratinocytes; dose 0.001 % w/v) [% against control] | Keratinocytes DNA (Human keratinocytes; dose 0.003 % w/v) [% against control] | LDH released (Human keratinocytes; dose 0.003 % w/v) [% against control] | PGE2 released (Human keratinocytes; dose 0.003 % w/v) [% against control] | Keratinocytes DNA (Human keratinocytes; dose 0.01 % w/v) [% against control] | LDH released (Human keratinocytes; dose 0.01 % w/v) [% against control] | PGE2 released (Human keratinocytes; dose 0.01 % w/v) [% against control] | Cell GSH/protein ratio (Human fibroblasts; dose 0.01 % w/v) [% against control] | MDA released (Human fibroblasts; dose 0.01 % w/v) [% against control] | other results |
| --- | --- | --- | --- | --- | --- | --- | --- | --- | --- | --- | --- | --- | --- | --- | --- | --- | --- | --- | --- | --- | --- |
|  | 54.5 g/L and 67.2 mM | 0.15 g/L and 0.19 mM | CC1OC(OCC2OC(Oc3c(-c4ccc(O)c(O)c4)oc4cc(O)cc(O)c4c3=O)C(O)C(O)C2O)C(O)C(O)C1OC(=O)CCCCCCCCCCS (stereo not drawn) [Rutin 11-mercaptoundecanoate] | 131 | 34 | 94 | 283 | 0 | 89 |  |  |  |  |  |  |  |  |  |  |  | Keratinocytes DNA (Human keratinocytes; dose 0.0001 % w/v): 44 % against control; LDH released (Human keratinocytes; dose 0.0001 % w/v): 75 % against control; PGE2 released (Human keratinocytes; dose 0.0001 % w/v): 26 % against control; Keratinocytes DNA (Human keratinocytes; dose 0.0003 % w/v): 41 % against control; LDH released (Human keratinocytes; dose 0.0003 % w/v): 92 % against control; PGE2 released (Human keratinocytes; dose 0.0003 % w/v): 12 % against control |
| 0.0025 |  |  | CC1OC(OCC2OC(Oc3c(-c4ccc(O)c(O)c4)oc4cc(O)cc(O)c4c3=O)C(O)C(O)C2O)C(O)C(O)C1OC(=O)CCCCCCCC(=O)O (stereo not drawn) [Rutin azelaiate] | 67 | 78 | 144 | 64 | 64 | 165 |  |  |  | 51 | 45 | 28 | 53 | 27 | 19 |  |  |  |
| 0.0036 | 39.4 g/L and 44.7 mM | 0.13 g/L and 0.15 mM | CC1OC(OCC2OC(Oc3c(-c4ccc(O)c(O)c4)oc4cc(O)cc(O)c4c3=O)C(O)C(O)C2O)C(O)C(O)C1OC(=O)CCCCCCCCCCCCCCC(=O)O (stereo not drawn) [Rutin hexadecandioate, rutin hexadecandioate] |  |  |  | 101 | 46 | 129 |  |  |  | 24 | 53 | 2 | 39 | 19 | 0 | 75 | 21 | Cell proteins (Human fibroblasts; dose 0.01 % w/v): 178 % against control; Solubility in water [1]: 0.38 g/L and 0.43 mM |

The remaining lines, values behind:

| Compound | IC50 (w/v), released superoxide anions (Lipoxygenase) [w/v] | Solubility in butylene glycol [1] | Solubility in octyl-dodecanol [1] | Cell GSH/protein ratio (Human fibroblasts; dose 0.001 % w/v) [% against control] | MDA released (Human fibroblasts; dose 0.001 % w/v) [% against control] | Cell proteins (Human fibroblasts; dose 0.001 % w/v) [% against control] | Cell GSH/protein ratio (Human fibroblasts; dose 0.003 % w/v) [% against control] | MDA released (Human fibroblasts; dose 0.003 % w/v) [% against control] | Cell proteins (Human fibroblasts; dose 0.003 % w/v) [% against control] | Keratinocytes DNA (Human keratinocytes; dose 0.001 % w/v) [% against control] | LDH released (Human keratinocytes; dose 0.001 % w/v) [% against control] | PGE2 released (Human keratinocytes; dose 0.001 % w/v) [% against control] | Keratinocytes DNA (Human keratinocytes; dose 0.003 % w/v) [% against control] | LDH released (Human keratinocytes; dose 0.003 % w/v) [% against control] | PGE2 released (Human keratinocytes; dose 0.003 % w/v) [% against control] | Keratinocytes DNA (Human keratinocytes; dose 0.01 % w/v) [% against control] | LDH released (Human keratinocytes; dose 0.01 % w/v) [% against control] | PGE2 released (Human keratinocytes; dose 0.01 % w/v) [% against control] | Cell GSH/protein ratio (Human fibroblasts; dose 0.01 % w/v) [% against control] | MDA released (Human fibroblasts; dose 0.01 % w/v) [% against control] | other results |
| --- | --- | --- | --- | --- | --- | --- | --- | --- | --- | --- | --- | --- | --- | --- | --- | --- | --- | --- | --- | --- | --- |
| CC1OC(OCC2OC(Oc3c(-c4ccc(O)c(O)c4)oc4cc(O)cc(O)c4c3=O)C(O)C(O)C2O)C(O)C(O)C1OC(=O)CCCCCCCCCCCCCCC(=O)OC1C(C)OC(OCC2OC(Oc3c(-c4ccc(O)c(O)c4)oc4cc(O)cc(O)c4c3=O)C(O)C(O)C2O)C(O)C1O (stereo not drawn) [Dirutin hexadecandioate, dirutin hexadecandioate] | 0.0028 |  |  | 98 | 39 | 138 | 154 | 9 | 149 | 38 | 44 | 3 | 35 | 33 | 1 |  |  |  |  |  |  |
| C[C@@H]1O[C@@H](OC[C@H]2O[C@@H](Oc3c(-c4ccc(O)c(O)c4)oc4cc(O)cc(O)c4c3=O)[C@H](O)[C@@H](O)[C@@H]2O)[C@H](O)[C@H](O)[C@H]1O [Rutin, reference compound] |  |  |  |  |  |  | 72 | 79 | 126 |  |  |  |  |  |  |  |  |  | 71 | 72 | Cell proteins (Human fibroblasts; dose 0.01 % w/v): 128 % against control; Keratinocytes DNA (Human keratinocytes; dose 0.03 % w/v): 69 % against control; LDH released (Human keratinocytes; dose 0.03 % w/v): 17 % against control; PGE2 released (Human keratinocytes; dose 0.03 % w/v): 0 % against control; Keratinocytes DNA (Human keratinocytes; dose 0.1 % w/v): 73 % against control; LDH released (Human keratinocytes; dose 0.1 % w/v): 18 % against control; PGE2 released (Human keratinocytes; dose 0.1 % w/v): 10 % against control; solubility at 1 h ([1]; butylene glycol, organic solvent or mixture, read-out: Solubility in butylene glycol): 22600 µg/mL and 37100 µM; solubility at 1 h ([1]; octyl-dodecanol, oil or lipid, read-out: Solubility in octyl-dodecanol): 30 µg/mL and 50 µM; solubility at 1 h ([1]; water, read-out: Solubility in water): 160 µg/mL and 270 µM |
| Rutin octadecandioate | 0.0034 |  |  | 73 | 46 | 139 | 122 | 15 | 133 | 23 | 73 | 28 | 49 | 31 | 3 |  |  |  |  |  |  |
